In general, GI50 refers to the concentration that inhibits growth by half. A lower GI50 goes with greater sensitivity of the cells. By LC50 is commonly meant the concentration lethal to half of the exposed cells or organisms. Usually TGI stands for the concentration at which net growth stops.

Common to all, as to assay type: functional
Experiment [1] has as its system Cancer cell lines. Nature of the experiment: Concentration required to inhibit growth of cells in 60 cancer cell lines.
Experiment [2] has as its system Cancer cell lines. Kind of experiment: Concentration required to kill cells.
Experiment [3] concerns Cancer cell lines. Kind of experiment: Concentration required to inhibit total growth of cells in 60 cancer cell lines. The following applies: read-out: Log TGI (converted).

In turn, `O=C1C(N2CC2)=CC(=O)c2nc(-c3ccccn3)ccc21` showed a GI50 in the experiment with Cancer cell lines [1] of 646 nM. In addition, in the experiment on Cancer cell lines [2], the LC50 is 9770 nM. Moreover, the TGI with Cancer cell lines [3] is 2450 nM.

In turn, `O=C1C=C(N2CC2)C(=O)c2nc(-c3ccccc3)ccc21` showed a GI50 in the experiment on Cancer cell lines [1] of 263 nM. The compound also had an LC50 in the experiment with Cancer cell lines [2] of 11200 nM. Also, in the experiment with Cancer cell lines [3], the TGI is 1780 nM.

Compound `O=C1C=C(N2CC2)C(=O)c2nc(-c3ccc4ccccc4c3)ccc21` showed a concentration for 50% growth inhibition (GI50) in the experiment on Cancer cell lines [1] of 3470 nM. In the experiment with Cancer cell lines [2], this compound showed an LC50 of 40700 nM. In the experiment on Cancer cell lines [3], the TGI is 10700 nM.

As to `O=C1C(N2CC2)=CC(=O)c2nc(-c3ccc4ccccc4c3)ccc21`, in the experiment on Cancer cell lines [1], the GI50 is 204 nM. The LC50 in the experiment on Cancer cell lines [2] was 5620 nM. Besides, the TGI with Cancer cell lines [3] was 1070 nM.

In turn, `O=C1/C(=N/CCO)C=C(O)c2nc(-c3ccccc3)ccc21` had a GI50 in the experiment with Cancer cell lines [1] of 2950 nM. Besides, the LC50 with Cancer cell lines [2] is 60300 nM. In addition, the TGI in the experiment with Cancer cell lines [3] was 20000 nM.

Take `O=C1C(N2CC2)=CC(=O)c2nc(-c3ccccc3)ccc21`: growth in the experiment on Cancer cell lines [1] was halved (GI50) at 52.5 nM. The compound further showed an LC50 in the experiment on Cancer cell lines [2] of 4070 nM. For the same compound, the TGI with Cancer cell lines [3] was 513 nM.

Turning to `O=C1C(NCCCl)=CC(=O)c2nc(-c3ccccc3)ccc21`, the GI50 in the experiment on Cancer cell lines [1] is 27.5 nM. The same compound had an LC50 with Cancer cell lines [2] of 2040 nM. Further, in the experiment on Cancer cell lines [3], the TGI is 324 nM.

The values above are taken from ChEMBL document CHEMBL1136211, “Design of quinolinedione-based geldanamycin analogues” (2003).
